# Where a name gives a salt, the structure may show the parent alone.
# Assays:
# [1] = test system: pain in the mid-back region; experiment: Acute pain, comparison with codeine, urinary calculi, subject three (Example 32); assay type: in vivo, human; details: for pain relief: subject three
# Experimental: Methylsulfonylmethane was compared with codeine for the control of pain in subject three, a person who awakened in the early morning with excruciating pain in the mid-back region, so intense it was difficult to pin-point a specific region. […] Analgesic requirements were 1/2 grain codeine with aspirin every two hours. […] The intense pain returned. The subject was given 1.5 g of methylsulfonylmethane dissolved in 1/2 glass of warm water. At 0.5 hours after taking the methylsulfonylmethane, the pain had essentially disappeared. Methylsulfonylmethane (1.5 g/day) was continued until the afternoon of the third day, when X-ray confirmed that the calculi yet obstructed the ureter. Subject was switched again to codeine with aspirin (1/2 grain×2 hours). […] Methylsulfonylmethane was again administered (1.5 g×4 hours). On day 5 the calculi passed. Recovery was uneventful, requiring neither codeine, methylsulfonylmethane,nor a urinary tract antimicrobial.
# arthritis = experiment: Canine arthritis and other sources of pain (Example 30); assay type: in vivo, dog; details: prior treatment
# Description: In each case the methylsulfonylmethane was admixed with the animal's food just prior to feeding.
# This animal, although owned by a veterinarian, had not responded to a variety of therapeutic regimens over the previous 12 months. Methylsulfonylmethane was given to this dog in its food at a level of 1.5 grams b.i.d. X 1 month.
# It was mobile but walked with obvious difficulty and discomfort. The animals was refractory to both cortisone and phenylbutazone.
# The animal had not responded to either cortisone nor phenylbutazone and its condition was deteriorating rapidly. Methylsulfonylmethane was included in its diet at 1 gm/day b.i.d. After one week, the dog appeared to be pain-free.
# Trichomonas vaginalis = experiment: Treatment of Trichomonas vaginalis infection in subjects (Example 28(a)); assay type: in vivo, human; details: human, in vivo
# Description: Both had prior courses of therapy for this disorder without adequate response. […]
# One subject was later reinfected by their sexual partner but the reinfection was cleared employing a daily douche of 5% aqueous methylsulfonylmethane for one week.
# platelet count = experiment: Low platelet count in lupus erythematosus (Example 22); assay type: in vivo, human; details: adult female, after prednisone therapy, before methylsulfonylmethane
# Description: Methylsulfonylmethane administered orally raised the platelet count of an adult with lupus erythematosus from 84,000 (after prednisone therapy) to 200,000 over a 2-year period (1.5 gm/day in 3 doses).
# [2] = test system: scarification of the right cheek pouch; experiment: Wound healing of the cheek pouch in hamsters (Example 17); assay type: in vivo; details: 0.1 gm/kg methylsulfonylmethane alone or 100 mg ascorbic acid alone in feed; controls day 4 and 5
# Experimental: Four sets of 5 hamsters were subject to scarification of the right cheek pouch, using standard methodology. One week prior to pouch injury, one set was started on a daily regimen of 0.1 gm/kg of methylsulfonylmethane in the diet of standard hamster feed, a second group was given 0.1 gm/kg of methylsulfonylmethane plus 100 mg of ascorbic acid in the same feed, a third group was given only 100 mg of ascorbic acid in the same feed, and the last group, fed only the feed, was held as control. Daily post-scarification examination was made to determine the rate of injury repair.
smiles,measurement,setting,value
CC(=O)Oc1ccccc1C(=O)O [Aspirin],pain relief,[1],ineffective
COc1ccc2c3c1O[C@H]1[C@@H](O)C=C[C@H]4[C@@H](C2)N(C)CC[C@@]341 [codeine],mental confusion,"[1]; day two, 1/2 grain codeine with aspirin every two hours",mental confusion
same,pain relief,[1],acceptable relief
"C[C@]12CCC(=O)C=C1CC[C@@H]1[C@@H]2C(=O)C[C@@]2(C)[C@H]1CC[C@]2(O)C(=O)CO [cortisone, reference compound]","response, Dog A",arthritis,not responsive
same,"response, Dog C",arthritis,refractory
same,"response, Dog D",arthritis,not responded
"Cc1ncc([N+](=O)[O-])n1CCO [metronidazole HCL, reference compound]",stomach upset and nausea,Trichomonas vaginalis,side effect experienced by one subject
"CCCCC1C(=O)N(c2ccccc2)N(c2ccccc2)C1=O [phenylbutazone, reference compound]","response, Dog A",arthritis,not responsive
same,"response, Dog C",arthritis,refractory
same,"response, Dog D",arthritis,not responded
"C[C@]12C=CC(=O)C=C1CC[C@@H]1[C@@H]2C(=O)C[C@@]2(C)[C@H]1CC[C@]2(O)C(=O)CO [prednisone, reference compound]",platelet count,platelet count,"84,000"
"O=C1O[C@H]([C@@H](O)CO)C(O)=C1O [vitamin C, ascorbic acid, reference compound]",day on which the 36-hour combination healing result was matched,[2],three

# — patent US4863748A, “Dietary products and uses comprising methylsulfonylmethane” (priority 1986, dated 1989)
